The values that follow come from patent US20260151413A1, “ANTICANCER DRUG CONJUGATES” (Ariel Scientific Innovations Ltd., priority 2022, published 2026).

pIC50: −log10 of the molar value. A value given as a limit tells only on which side of the number the result lay.

The test system of one data set is HEL. Nature of the data set: WST-1 proliferation assay, HEL. The settings on record: WST-1, 48 hours of treatment. It counts as cell-based, human. How it is done: (§1) Albert Pinhasov (Ariel University, Ariel, Israel). […] Granta cells were kindly provided by Prof.
(§2) Table 3 [resents the calculated IC50 values (μM) for each chimera in different hematological malignancies cell-lines. The proliferation rate was measured by WST-1 assay after 48 hours of treatment. The result shown for each concentration point represents the […]

In another data set the test system is MHH-CALL4. Briefly: WST-1 proliferation assay, MHH-CALL4. It counts as cell-based, human. Conditions: WST-1, 48 hours of treatment. As for the experimental part:
as §1, §2

For the next data set, the system named is OCI-AML3. Nature of the data set: WST-1 proliferation assay, OCI-AML3. The class given is cell-based. The settings on record: WST-1, 48 hours of treatment. How it is done: as §1, §2
The next data set concerns MUTZ5. Briefly: WST-1 proliferation assay, MUTZ5. The class given is cell-based, human. The settings on record: WST-1, 48 hours of treatment. How it is done: as §1, §2
Another data set deals with JEKO-1. Briefly: WST-1 proliferation assay, JEKO-1. It counts as cell-based, human. The settings on record: WST-1, 48 hours of treatment. As for the experimental part: as §1, §2
Another data set has as its system GRANTA. Nature of the data set: WST-1 proliferation assay, GRANTA. It counts as cell-based. Conditions: WST-1, 48 hours of treatment. As for the experimental part: as §1, §2
In the next data set the test system is Rec-1. Briefly: WST-1 proliferation assay, Rec-1. The class given is cell-based, human. The settings on record: WST-1, 48 hours of treatment. As for the experimental part:
as §1, §2

A further data set relates to DND41. Briefly: WST-1 proliferation assay, DND41. Conditions: WST-1, 48 hours of treatment. It counts as cell-based, human. How it is done: as §1, §2
The test system of the next data set is MINO. Nature of the data set: WST-1 proliferation assay, MINO. The class given is cell-based, human. Conditions: WST-1, 48 hours of treatment. How it is done:
as §1, §2

A further data set has as its system KG-1a. Nature of the data set: WST-1 proliferation assay, KG-1a. The class given is cell-based. The settings on record: WST-1, 48 hours of treatment. As for the experimental part:
as §1, §2

Data set [1] has as its system 10 hematological cell-lines. Nature of the data set: In vitro cytotoxicity screening on the panel of hematological cell-lines (WST-1). The settings on record: for effect on proliferation rate across the examined cell-lines: 10 hematological cell-lines, WST-1; for cytotoxic effect compared to the parental non-conjugated drug: chimera vs its parent drug.
Method: The above cells were cultured in RPMI medium (Gibco, Thermo Fisher Scientific Inc., USA). […] All media were supplemented with 10% heat-inactivated Fetal Bovine Serum (FBS, Biological industries, Israel), 2 mM glutamine (Biological industries, Israel) and 1% penicillin and streptomycin (Biological industries, Israel). Cells were cultured at 37° C. in a humidified incubator with 5% CO2.
Growth inhibition in hematological malignancies cell-lines was measured by tetrazolium WST-1 assay (Roche, Basel, Switzerland). Cells (1*10^4) were treated with various concentrations of the specific chimera or parental drug. After 48 h of incubation, 10 μl of WST-1 reagent was added to the plate and incubated for 1 h at 37° C., at which point the absorbance (450 nm) was measured in an ELISA plate reader (Synergy HTX multi-mode reader, Winooski, Vermont, USA).
MUTZ5 and MHH-CALL4; B-cell Acute lymphocytic leukemia (B-cell ALL) model. DND41; T-ALL model. KG-1a and OCI-AML-3; Acute myeloid leukemia (AML) model and HEL; erythroleukemia model.
In data set [2] the test system is Human primary anaplastic thyroid cancer (ATC) cells. Nature of the data set: Vitality/proliferation of primary anaplastic thyroid cancer cells. It counts as cell-based. The settings on record: 100 nM, 250 nM, 500 nM; 3, 5 and 7 days. How it is done: Human primary anaplastic thyroid cancer (ATC) cells were treated with chimera 9 (100 nM, 250 nM, and 500 nM), or Doxorubicin (100 nM, 250 nM, and 500 nM), or with vehicle, for 3, 5, and 7 days.

Data set [3] concerns triple negative breast cancer (TNBC) MDA 231 cells. As for the experimental part: Five-week-old athymic Nude-Foxn 1nu male mice (ENVIGO Labs, Nes Ziona, Israel) were subcutaneously inoculated on the dorsal left side with […] (1×10^6 cell) into nu/nu mice, 0.2 mL per mouse) and tumors allowed to establish over time. When tumor volume reached 100 mm^3, Doxorubicin (Dox) and Doxorubizen (Chimera 9) were administered intraperitoneally (ip). Animals were removed from an experiment if either of the following conditions were fulfilled: reduction of 20% or more body weight; tumor volume>0.55 cm^3. The tumor dimensions were measured using a Vernier caliper and the volume was calculated according to the equation: Volume (mm^3) ¼ length×width×width×½ three times per week. The in vivo experiments were approved by the Animal Ethics Committee (Authorization number IL-179-06-19).
Chimera 9 was also evaluated for its effect on breast cancer model. For this evaluation, […] nude female (6-8 weeks) mice (groups 1, 2, two mice per group, groups 3, 4, 5 three mice per group) were inoculated with triple negative breast cancer (TNBC) MDA 231 cells. Group 1 was used as the control for tumor growth. After 10 days, mice were […] (ip) administered with Doxorubicin (groups 2 and 4) and Chimera 9 (Doxorubizen) (groups 3 and 5) in the following regime: ip administration of 2.5 mg/kg Doxorubicin once per week (group 2) and three sequential days per week (group 4); ip administration of 3.5 mg/kg chimera 9 once per week (group 3) and three sequential days per week (group 5). Overall experiment carried out for 5 weeks and 4 days, when the tumor volumes for all the groups were monitored. Tumors were then resected and measured.

For data set [4], the system named is aggressive papillary thyroid cancer cells. Briefly: Proliferation of aggressive papillary thyroid cancer cells. The class given is cell-based. The settings on record: 10 nM and 100 nM, with respect to DMSO control. As for the experimental part: Chimera 9 (also referred to herein as Doxorubizen) was evaluated in two different concentrations (10 nM and 100 nM) on aggressive papillary thyroid cancer and with respect to the parent anticancer drug Doxorubicin.

Take `COC(=O)N(C)/N=N/c1ccc(Cn2cc(F)c(=O)[nH]c2=O)cc1` [Chimera 5]: the pIC50 with HEL is 5.57; in the data set with MHH-CALL4, 4.49; in the data set with OCI-AML3 it was 4.64; in the data set on MUTZ5, 4.35; in the data set on JEKO-1 it was less than 4.30; in the data set on GRANTA it was less than 4.30. The pIC50 with Rec-1 is 6.89; in the data set with DND41 it was 4.51; with MINO, 4.53; with KG-1a it was 4.56.

In the case of `COC(=O)N(C)/N=N/c1ccc(CSc2ncnc3nc[nH]c23)cc1` [Chimera 6, (E)-methyl 3-(4-(((7H-purin-6-yl)thio)methyl)phenyl)-1-methyltriaz-2-ene-1-carboxylate], the “effect on proliferation rate across the examined cell-lines” value in data set [1] is given as “decreased the proliferation rate in at least 3 cell-lines”.

Consider `COC(=O)N(C)/N=N/c1ccc(Cn2cc(F)c(=O)[nH]c2=O)cc1` [Chimera 5, (E)-methyl3-(4-((5-fluoro-2,4-dioxo-3,4-dihydropyrimidin-1(2H)-yl)methyl)phenyl)-1-methyltriaz-2-ene-1-carboxylate], for which the “effect on proliferation rate across the examined cell-lines” value in data set [1] is given as “decreased the proliferation rate in at least 3 cell-lines”.

In the case of `COC(=O)N(C)/N=N/c1ccc(CNc2cccc3c2CN(C2CCC(=O)NC2=O)C3=O)cc1` (stereo not shown) [Chimera 2], the pIC50 with HEL is 5.93; in the data set with MHH-CALL4, 4.62; with OCI-AML3, 4.77; in the data set on MUTZ5, 4.32; in the data set with JEKO-1, 4.64; in the data set on GRANTA, less than 4.30. For the same molecule, the pIC50 was 4.85 with Rec-1, less than 4.30 in the data set with DND41, 5.24 in the data set with MINO and 4.34 with KG-1a.

With `COC(=O)N(C)/N=N/c1ccc(COc2cc(/C=C\c3cc(OC)c(OC)c(OC)c3)ccc2OC)cc1` [Chimera 4, (E)-methyl3-(4-((2-methoxy-5-((Z)-3,4,5-trimethoxystyryl)phenoxy)methyl)phenyl)-1-methyltriaz-2-ene-1-carboxylate], in data set [1], the “effect on proliferation rate across the examined cell-lines” value is “decreased the proliferation rate in at least 3 cell-lines” and the “cytotoxic effect compared to the parental non-conjugated drug” value is “less than superior cytotoxic effect”.

On to `COc1cccc2c1C(=O)c1c(O)c3c(c(O)c1C2=O)C[C@@](O)(C(=O)CO)C[C@@H]3O[C@H]1C[C@H](N)[C@H](O)[C@H](C)O1` [Doxorubicin, reference compound], for which, in data set [2], the “vitality/proliferation of primary human ATC cells” value was “reduced the vitality/proliferation of primary human ATC cells significantly”. For the same molecule, in [3] (Group 2: ip 2.5 mg/kg once per week), the “day of sacrifice due to large tumor volumes and severe animal conditions” value stood at 12 days. Besides, in data set [3] (Group 4: ip 2.5 mg/kg, three sequential days per week), the “day of death due to over toxication” value is 20 days. In addition, the “proliferation of thyroid cancer cells” value in [4] is “no effect on cell proliferation”.

Turning to `COC(=O)N(C)/N=N/c1ccc(COc2cc(/C=C\c3cc(OC)c(OC)c(OC)c3)ccc2OC)cc1` [Chimera 4], the pIC50 in the data set on HEL is 5.79; in the data set on MHH-CALL4 it was 4.67; in the data set on OCI-AML3, less than 4.30; with MUTZ5, 4.40; in the data set with JEKO-1 it was 4.86; in the data set with GRANTA it was 4.38. The negative logarithm of the IC50 (pIC50) in the data set with Rec-1 is 6.89; in the data set with DND41, 4.56; in the data set on MINO, 6.16; in the data set on KG-1a, 5.33.

Take `COC(=O)N(C)/N=N/c1ccc(CSc2ncnc3nc[nH]c23)cc1` [Chimera 6]: the negative-log IC50 (pIC50) was 4.87 in the data set on HEL; 4.78 with MHH-CALL4; 5.06 in the data set on OCI-AML3; 4.51 in the data set with MUTZ5; 4.40 in the data set with JEKO-1; less than 4.30 in the data set with GRANTA. The pIC50 in the data set on Rec-1 is 4.69; in the data set on DND41, less than 4.30; in the data set with MINO, 5.16; in the data set on KG-1a, 4.41.

As to `COC(=O)N(C)/N=N/c1ccc(CNc2nc3ccc(OC(F)(F)F)cc3s2)cc1` [Chimera 7, (E)-methyl1-methyl-3-(4-(((6-(trifluoromethoxy)benzo [d]thiazol2yl)amino)methyl)phenyl) triaz-2-ene-1-carboxylate], in [1], the “effect on proliferation rate across the examined cell-lines” value is reported as “decreased the proliferation rate in at least 3 cell-lines” and the “cytotoxic effect compared to the parental non-conjugated drug” value is reported as “reduced proliferation rate of numerous cell-lines”.

Regarding `CCc1c2c(nc3ccc(OCc4ccc(/N=N\N(C)C(=O)OC)cc4)cc13)-c1cc3c(c(=O)n1C2)COC(=O)[C@]3(O)CC` [Chimera 1, (S,Z)-methyl3-(4-(((4,11-diethyl-4-hydroxy-3,14-dioxo-3,4,12,14-tetrahydro-1H pyrano [3′,4′:6,7]indolizino[1,2-b]quinolin-9-yl)oxy)methyl)phenyl)-1-methyltriaz-2-ene-1-carboxylate], in data set [1], the “effect on proliferation rate across the examined cell-lines” value is on record as “inhibited the proliferation rate in all the examined cell-lines” and the “cytotoxic effect compared to the parental non-conjugated drug” value is “less than superior cytotoxic effect”.

`COC(=O)N(C)/N=N/c1ccc(COc2c(OC)cc([C@@H]3c4cc5c(cc4[C@@H](OC4O[C@@H]6CO[C@@H](C)O[C@H]6[C@H](O)[C@H]4O)[C@H]4COC(=O)[C@H]34)OCO5)cc2OC)cc1` (stereo partly shown) [Chimera 3]: in data set [1], the “cytotoxic effect compared to the parental non-conjugated drug” value was “did not show prevalence over Etoposide”. The pIC50 in the data set with HEL was 4.37; with MHH-CALL4 it was less than 4.30; in the data set with OCI-AML3, 4.99; in the data set on MUTZ5 it was 4.46; in the data set on JEKO-1, 4.54; with GRANTA it was 4.38. Also, the pIC50 in the data set with Rec-1 was 4.62; with DND41, less than 4.30; with MINO, 4.52; with KG-1a, less than 4.30.

`COC(=O)N(C)/N=N/c1ccc(CNc2nc3ccc(OC(F)(F)F)cc3s2)cc1` [Chimera 7]: the pIC50 with HEL is 5.63; with MHH-CALL4, 5.28; in the data set on OCI-AML3, 4.85; in the data set on MUTZ5, 5.74; with JEKO-1 it was less than 4.30; in the data set with GRANTA, 4.37. Also, the negative logarithm of the IC50 (pIC50) in the data set with Rec-1 is 4.74; in the data set with DND41, 5.63; in the data set on MINO it was 5.11; in the data set on KG-1a, 4.64.

As for `COC(=O)N(C)/N=N/c1ccc(CNc2cccc3c2CN(C2CCC(=O)NC2=O)C3=O)cc1` (stereo not shown) [Chimera 2, (E)-methyl 3-(4-(((2-(2,6-dioxopiperidin-3-yl)-1-oxoisoindolin-4-yl)amino)methyl)phenyl)-1-methyltriaz-2-ene-1-carboxylate], in [1], the “effect on proliferation rate across the examined cell-lines” value is listed as “decreased the proliferation rate in at least 3 cell-lines”.

For `CCc1c2c(nc3ccc(OCc4ccc(N=NN(C)C(=O)OC)cc4)cc13)-c1cc3c(c(=O)n1C2)COC(=O)C3(O)CC` (stereo not shown) [Chimera 1], the pIC50 with HEL is 6.26; in the data set with MHH-CALL4 it was 5.92; in the data set with OCI-AML3, 4.91; in the data set with MUTZ5, 5.52; with JEKO-1, 6.44; with GRANTA, 5.07. Further, the negative logarithm of the IC50 (pIC50) in the data set with Rec-1 was 6.23; in the data set on DND41 it was 5.70; with MINO, 6.20; with KG-1a, 5.98.

With `COC(=O)N(C)/N=N/c1ccc(CNc2cc3c4c(cccc4c2)C(=O)N(CCN(C)C)C3=O)cc1` [Chimera 8], the negative logarithm of the IC50 (pIC50) in the data set on HEL is 5.71; in the data set on MHH-CALL4, 4.44; in the data set on OCI-AML3 it was 4.90; in the data set on MUTZ5, 4.99; in the data set with JEKO-1, 5.15; in the data set on GRANTA, less than 4.30. The pIC50 in the data set on Rec-1 is less than 4.30; in the data set on DND41, 4.68; in the data set with MINO, 4.88; with KG-1a, 4.72.
